According to US9364479B2, “Use of a receptor-type kinase modulator for treating polycystic kidney disease” (SYMPHONY EVOLUTION, INC., priority 2010, dated 2016):
Marks after values point to notes of the source that are not given here.

How the values were obtained:
Dopamine Transporter = biological target: T1, Dopamine Transporter (Homo sapiens, UniProt Q01959); assay: NovaScreen assay; assay type: binding
T1 construct: NovaScreen

Histamine, H2 = biological target: T2, Histamine, H2 (Homo sapiens, UniProt P25021); assay: NovaScreen assay; assay type: binding; details: read-out: Inhibition, 10 μM XL-647
T2 construct: NovaScreen

Neurokinin, NK3 (NKB) = biological target: T3, Neurokinin, NK3 (NKB) (Homo sapiens, UniProt P29371); assay: NovaScreen assay; assay type: binding; details: read-out: Inhibition, 10 μM XL-647
T3 construct: NovaScreen

Lck = biological target: T4, Lck (Homo sapiens, UniProt P06239); assay: Chemiluminescent kinase assay; assay type: biochemical
T4 construct: Human, Q225-; mM MgCl2, 3 mM MnCl2, 1; P510, N-GST/C-; GST (N); EF (C)
Protocol: (§1) A Luciferase-coupled chemiluminescence assay was used to measure EGFR and KDR (VEGFR2) activity. Kinase activity was measured as the percentage of ATP consumed following the kinase reaction using luciferase-luciferin-coupled chemiluminescence. Reactions were conducted in 384-well white, medium-binding microtiter plates (Greiner). […] The reaction mixture was incubated at room temperature for 4 h. Following the kinase reaction, a 20 μL aliquot of Kinase Glo (Promega) was added and luminescence signal was measured using a Victor2 plate reader (Perkin-Elmer). Total ATP consumption was limited to 50%.
(§2) Further screening was performed using the biochemical assay methods of Example 2. Additional description of the components and concentrations are summarized in Table 8, Table 9, and Table 10, below.

ZAP-70 = biological target: T5, ZAP-70 (Homo sapiens, UniProt P43403); assay: Chemiluminescent kinase assay; assay type: biochemical
T5 construct: purchased MBL
Protocol: as §1, §2

c-Abl = biological target: T6, c-Abl (Homo sapiens, UniProt P00519); assay: Chemiluminescent kinase assay; assay type: biochemical
T6 construct: Human, P118-; mM MgCl2, 3 mM MnCl2, 1; S553, N-GST,; GST (N); purchased ProQinase
Protocol: as §1, §2

c-Met = biological target: T7, c-Met (Homo sapiens, UniProt P08581); assay: Chemiluminescent kinase assay; assay type: biochemical
T7 construct: Human, P948-; MgCl2, 0.02% Triton X-100,; S1343, N-GST-; GST (N); purchased ProQinase
Protocol: as §1, §2

[1] = tested on: BT474 human tumor xenograft; assay: BT474 xenograft, tumor growth; assay type: in vivo; details: Mus musculus
Protocol: The response of tumors to treatment was determined by comparing the mean tumor weight of the treatment group with the appropriate control group. Percentage inhibition of tumor growth was determined with the following formula: Percentage inhibition=100×[1−(Xf−Xo)/(Yf−Yo)], where Xf and Yf are the mean tumor weights of the treatment and control groups, respectively, on day f, and Xo and Yo are the mean tumor weights of treatment and control groups respectively, on day zero (staged tumor weights after grouping)

H1975 xenografts = assay: Immunohistochemical analysis of H1975 xenografts (TUNEL, CD31, Ki67); assay type: in vivo, mouse; details: 14-day dosing
Protocol: For immunohistochemical analysis of H1975, MDA-MB-231 and other xenografts, tumors were excised after euthanasia and fixed in zinc fixative (BD Biosciences) for 48 h before being processed into paraffin blocks. Serial sections at 5 μm were obtained from the area of largest possible surface for each tumor and stained using standard methods. The following antibodies were used: Ki67 (SP6; Labvision), CD31 (MECA.32; BD Biosciences), pERK^Thr202/Tyr204 (phospho-p44/42 mitogen-activated protein kinase; Cell Signaling Technology), pAKT^Ser473 (Cell Signaling Technology), and pEGFR^Tyr1068 (Cell Signaling Technology). For immunofluorescent staining, sections were then incubated with Alexa 594-conjugated goat anti-rabbit secondary antibody (Invitrogen) and mounted in Fluorescent Mounting Medium (DAKO) containing 4′,6-diamidino-2-phenylindole (Molecular Probes) as a nuclear counterstain. Fluorescent staining was visualized using a Zeiss Axiolmager and digitally captured using a Zeiss high-resolution camera coupled to AxioVision image analysis software. Two to three nonoverlapping representative fields were captured at ×200 or ×400 magnification depending on histologic readout and quantified using the integrated morphometric analysis functions in Metamorph software (Universal Imaging Corp.). Apoptotic cells were detected using terminal deoxynucleotidyl transferase-mediated dUTP nick end labeling in situ cell death detection kit according to the manufacturer's instructions (Roche Diagnostics GmbH).
CD31-positive tumor vessels, Ki67-positive proliferating cells, and pERK staining in each tumor section were identified and quantified using the integrated morphometric analysis functions in the ACIS automatic cellular imaging system (Clarient, Inc.) and reviewed by a blinded observer. Number of CD31-positive vessels were identified across 5 to 10 randomly chosen fields of equal size at ×100 magnification in viable tumor tissue and calculated as number of vessels per square millimeter for each tumor, averaged for each treatment group, and compared with vehicle-treated controls. Percentage Ki67-positive cells were calculated as the ratio between Ki67-positive cells divided by the total number of cells identified across 5 to 10 randomly chosen fields of equal size in viable tumor tissue. The results for each tumor and treatment group were averaged and compared with vehicle-treated controls. The level of pERK staining was determined as described above and calculated as the ratio of antibody staining divided by the total number of cells identified, averaged for each treatment group, and compared with vehicle-treated controls.
Results are presented as mean±SD or SE as indicated for each graph or table. For IC50 comparison in the A431 cell viability experiment, two sample Student's t tests were applied to determine P values for each IC50 pair assuming that the random fluctuations of replicates around the dose-response curve are distributed [log]normally with the individual replicates used as the ‘sample size’ for the t test (nine point dose response done in triplicate). For statistical analysis of immunohistochemical results from in vivo studies, two-tailed Student's t test analysis and Bonferroni correction were done to identify significant differences compared with vehicle control group (multiple use of a single vehicle control group) with a cumulative minimal requirement of P<0.05.

T1 sequence (Q01959 whole entry): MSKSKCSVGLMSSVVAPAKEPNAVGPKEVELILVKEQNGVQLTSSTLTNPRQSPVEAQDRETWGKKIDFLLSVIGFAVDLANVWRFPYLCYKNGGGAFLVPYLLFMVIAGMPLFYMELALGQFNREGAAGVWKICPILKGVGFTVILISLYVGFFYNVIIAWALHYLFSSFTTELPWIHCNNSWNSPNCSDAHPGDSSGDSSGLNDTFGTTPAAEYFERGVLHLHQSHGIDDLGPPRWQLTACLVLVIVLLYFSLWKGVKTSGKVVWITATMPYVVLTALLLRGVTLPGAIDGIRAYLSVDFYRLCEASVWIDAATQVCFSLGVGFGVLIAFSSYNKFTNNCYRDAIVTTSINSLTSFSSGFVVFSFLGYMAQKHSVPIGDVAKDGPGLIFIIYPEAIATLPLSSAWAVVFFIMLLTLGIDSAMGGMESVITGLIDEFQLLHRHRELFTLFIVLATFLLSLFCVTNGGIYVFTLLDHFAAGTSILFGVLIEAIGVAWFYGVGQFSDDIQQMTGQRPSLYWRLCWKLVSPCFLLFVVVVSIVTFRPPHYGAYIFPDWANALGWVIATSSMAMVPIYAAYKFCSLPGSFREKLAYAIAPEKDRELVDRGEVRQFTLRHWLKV
T4 sequence (P06239 225-509 limits assumed): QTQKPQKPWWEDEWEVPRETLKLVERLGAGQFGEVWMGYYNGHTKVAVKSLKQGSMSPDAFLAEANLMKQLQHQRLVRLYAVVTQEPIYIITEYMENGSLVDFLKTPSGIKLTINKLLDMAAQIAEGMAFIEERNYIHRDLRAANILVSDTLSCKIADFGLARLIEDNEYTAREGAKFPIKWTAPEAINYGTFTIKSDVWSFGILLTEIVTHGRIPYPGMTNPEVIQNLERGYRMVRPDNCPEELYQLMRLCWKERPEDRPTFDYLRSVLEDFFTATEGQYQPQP
T3 sequence (P29371 whole entry): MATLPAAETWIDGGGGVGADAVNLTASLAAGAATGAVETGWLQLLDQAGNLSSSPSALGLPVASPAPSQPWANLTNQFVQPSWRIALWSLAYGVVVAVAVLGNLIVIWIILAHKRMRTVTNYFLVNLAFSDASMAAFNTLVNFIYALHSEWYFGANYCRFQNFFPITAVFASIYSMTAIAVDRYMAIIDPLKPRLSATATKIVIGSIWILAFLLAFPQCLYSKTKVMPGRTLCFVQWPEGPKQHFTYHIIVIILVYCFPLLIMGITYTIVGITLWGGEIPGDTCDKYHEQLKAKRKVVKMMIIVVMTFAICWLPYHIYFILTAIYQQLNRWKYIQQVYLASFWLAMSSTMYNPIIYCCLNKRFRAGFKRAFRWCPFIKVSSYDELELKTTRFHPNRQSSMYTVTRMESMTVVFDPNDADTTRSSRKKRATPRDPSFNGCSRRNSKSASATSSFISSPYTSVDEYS
T7 sequence (P08581 956-1390 limits assumed): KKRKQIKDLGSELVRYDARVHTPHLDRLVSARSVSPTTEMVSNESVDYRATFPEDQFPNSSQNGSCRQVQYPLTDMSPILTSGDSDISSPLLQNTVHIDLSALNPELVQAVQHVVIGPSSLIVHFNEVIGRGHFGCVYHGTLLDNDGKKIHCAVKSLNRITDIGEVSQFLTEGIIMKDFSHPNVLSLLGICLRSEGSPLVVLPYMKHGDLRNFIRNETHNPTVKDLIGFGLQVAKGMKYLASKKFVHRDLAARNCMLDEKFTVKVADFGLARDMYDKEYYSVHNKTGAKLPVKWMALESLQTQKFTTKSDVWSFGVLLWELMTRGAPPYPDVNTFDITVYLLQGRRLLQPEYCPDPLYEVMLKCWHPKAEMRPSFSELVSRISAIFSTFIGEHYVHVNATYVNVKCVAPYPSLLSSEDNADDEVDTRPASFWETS
T2 sequence (P25021 whole entry): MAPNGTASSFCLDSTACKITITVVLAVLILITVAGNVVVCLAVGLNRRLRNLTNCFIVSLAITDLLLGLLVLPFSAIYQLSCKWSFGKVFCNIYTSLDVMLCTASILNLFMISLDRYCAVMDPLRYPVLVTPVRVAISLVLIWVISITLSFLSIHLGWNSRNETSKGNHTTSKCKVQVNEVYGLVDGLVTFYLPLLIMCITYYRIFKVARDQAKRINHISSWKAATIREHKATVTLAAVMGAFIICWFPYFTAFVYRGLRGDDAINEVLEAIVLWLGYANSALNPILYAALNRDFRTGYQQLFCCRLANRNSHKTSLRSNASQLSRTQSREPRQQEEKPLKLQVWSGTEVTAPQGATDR
T5 sequence (P43403 whole entry): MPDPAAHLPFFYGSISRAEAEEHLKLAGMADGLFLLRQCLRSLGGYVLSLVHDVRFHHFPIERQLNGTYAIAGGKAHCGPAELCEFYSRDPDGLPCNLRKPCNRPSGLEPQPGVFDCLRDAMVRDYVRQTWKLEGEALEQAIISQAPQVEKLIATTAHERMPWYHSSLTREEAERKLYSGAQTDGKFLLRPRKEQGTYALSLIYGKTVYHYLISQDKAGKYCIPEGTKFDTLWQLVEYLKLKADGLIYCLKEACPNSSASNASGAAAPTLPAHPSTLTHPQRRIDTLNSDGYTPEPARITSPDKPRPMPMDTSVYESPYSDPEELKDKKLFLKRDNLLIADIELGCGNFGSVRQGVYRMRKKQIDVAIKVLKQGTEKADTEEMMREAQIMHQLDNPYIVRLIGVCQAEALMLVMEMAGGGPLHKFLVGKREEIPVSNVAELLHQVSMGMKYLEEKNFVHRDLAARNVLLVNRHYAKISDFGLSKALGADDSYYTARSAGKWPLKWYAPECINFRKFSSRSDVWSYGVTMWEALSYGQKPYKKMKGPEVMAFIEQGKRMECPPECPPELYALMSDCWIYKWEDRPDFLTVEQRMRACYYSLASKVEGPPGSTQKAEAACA
T6 sequence (P00519 118-553): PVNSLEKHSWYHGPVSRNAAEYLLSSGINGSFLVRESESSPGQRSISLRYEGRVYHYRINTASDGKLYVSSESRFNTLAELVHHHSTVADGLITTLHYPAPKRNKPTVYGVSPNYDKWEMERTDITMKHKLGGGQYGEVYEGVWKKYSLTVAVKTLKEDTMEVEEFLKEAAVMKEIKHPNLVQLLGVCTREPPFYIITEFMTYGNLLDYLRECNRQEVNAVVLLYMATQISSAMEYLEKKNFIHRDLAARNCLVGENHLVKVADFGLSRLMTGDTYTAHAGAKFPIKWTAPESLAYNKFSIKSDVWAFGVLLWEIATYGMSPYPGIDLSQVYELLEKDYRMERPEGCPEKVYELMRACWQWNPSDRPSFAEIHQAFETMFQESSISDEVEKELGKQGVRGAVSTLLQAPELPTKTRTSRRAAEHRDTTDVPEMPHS

## COc1cc2c(Nc3ccc(Cl)c(Cl)c3F)ncnc2cc1OC[C@@H]1C[C@@H]2CN(C)C[C@@H]2C1 [XL-647, N-(3,4-dichloro-2-fluorophenyl)-7-({[(3aR,5r,6aS)-2-methyloctahydrocyclopenta[c]pyrrol-5-yl]methyl}oxy)-6-(methyloxy)quinazolin-4-amine]
Dopamine Transporter
  IC50: 2480 nM
Dopamine Transporter; read-out: Inhibition, 10 μM XL-647
  inhibition at 10 µM: 87.1%
Histamine, H2
  inhibition at 10 µM: 45.7%
Neurokinin, NK3 (NKB)
  inhibition at 10 µM: 20%
Lck
  IC50: 31 ± 0.3 nM
ZAP-70
  IC50: 7810 ± 655 nM
c-Abl
  IC50: 337 ± 3.6 nM
c-Met
  IC50: 332 ± 50.7 nM
[1]; BT-474, qd × 14
  ED50: 9.8 mg/kg
[1]; BT-474, qd × 28
  ED50: 21.9 mg/kg
H1975 xenografts; 10 mg/kg
  CD31 Analysis % Reduction: 30.0^b %
  CD31 Analysis MVC: 44
  Ki67 Expression % Cells: 27%
  Ki67 Expression % Reduction: 23.2^b %
  TUNEL % Cells: 6%
H1975 xenografts; 30 mg/kg
  CD31 Analysis % Reduction: 46.1^a %
  CD31 Analysis MVC: 34
  Ki67 Expression % Cells: 20%
  Ki67 Expression % Reduction: 41.9^a %
  TUNEL % Cells: 11%
H1975 xenografts; 100 mg/kg
  CD31 Analysis % Reduction: 69.6^a %
  CD31 Analysis MVC: 19
  Ki67 Expression % Cells: 8.9%
  Ki67 Expression % Reduction: 74.6^a %
  TUNEL % Cells: 15%
